{"source": "patent US20240409585A1", "about": "“MACROCYCLIC IMMUNOMODULATORS” (priority 2021, published 2024)", "note": "Bridge positions count the residues as written; N and C are the ends. Square brackets hold non-standard residues; d marks the D form. Peptide text beside a SMILES is read from it. * marks the point of attachment. ξ: configuration not given here. Phe(4-COOH) = N[C@@H](Cc1ccc(C(=O)O)cc1)C(=O)O; Bip = N[C@@H](Cc1ccc(-c2ccccc2)cc1)C(=O)O; Phe(3-Me) = Cc1cccc(C[C@H](N)C(=O)O)c1; Phe(2-F) = N[C@@H](Cc1ccccc1F)C(=O)O; Val(3-OH) = CC(C)(O)[C@H](N)C(=O)O; 4Pal = N[C@@H](Cc1ccncc1)C(=O)O; Cha = N[C@@H](CC1CCCCC1)C(=O)O; Cit = NC(=O)NCCC[C@H](N)C(=O)O; AllylGly = C=CC[C@H](N)C(=O)O; Thr(3ξ) = CC(O)[C@H](N)C(=O)O; NMeNle = CCCC[C@H](NC)C(=O)O; Carboxymethyl = O=C(O)C*; NMeA = CN[C@@H](C)C(=O)O; Nle = CCCC[C@H](N)C(=O)O; Pra = C#CC[C@H](N)C(=O)O; Dab = NCC[C@H](N)C(=O)O; Nva = CCC[C@H](N)C(=O)O; Dap = NC[C@H](N)C(=O)O; ξC = NC(CS)C(=O)O"}
{"biological_target": "T1, PE-labeled human PD-L1-Ig binding to Jurkat cell line over-expressing human PD-1 (Jurkat-PD-1) (Homo sapiens, UniProt Q15116)", "T1 construct": "expressed in transfected cells; host or cells: Jurkat", "T1 sequence (Q15116 25-288)": "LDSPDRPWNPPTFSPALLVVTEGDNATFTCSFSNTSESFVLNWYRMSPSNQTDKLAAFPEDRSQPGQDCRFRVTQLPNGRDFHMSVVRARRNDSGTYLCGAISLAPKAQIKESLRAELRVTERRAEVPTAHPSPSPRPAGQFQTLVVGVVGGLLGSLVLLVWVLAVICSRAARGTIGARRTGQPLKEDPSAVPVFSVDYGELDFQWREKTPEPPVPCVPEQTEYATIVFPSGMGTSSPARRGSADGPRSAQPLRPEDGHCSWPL", "assay": "Jurkat-PD-1 Cell Binding High-Content Screening Assay (CBA): Method 1", "conditions": "Jurkat-hPD-1 cells, PE-labeled PD-L1-Ig 20 nM final; read-out: Jurkat HPDL1 PD1 IC50 (uM) (Method 1)", "units": {"IC50": "µM"}}
{"smiles": "CC(C)C[C@@H]1NC(=O)[C@H](CCN)NC(=O)[C@@H](CC(C)C)NC(=O)[C@H](C)N(C)C(=O)[C@H](C(C)C)NC(=O)[C@H](Cc2ccc(-c3ccccc3)cc2)NC(=O)[C@H](C(C)C)NC(=O)[C@H](Cc2c[nH]c3ccccc23)NC(=O)[C@H](CC(=O)O)NC(=O)[C@H](Cc2ccccc2F)NC(=O)[C@H](CN)NC(=O)CSC[C@@H](C(=O)N[C@@H](C)C(N)=O)NC(=O)[C@H]([C@@H](C)O)NC(=O)[C@H](C(C)C)NC1=O", "note": "[Compound 1442] ({CH2CO}-[Dap][Phe(2-F)]DWV[Bip]V[NMeA][dL][Dab]LVTCA-NH2; thioether N-14)", "IC50": 0.03}
{"smiles": "CCC[C@@H]1NC(=O)[C@H](C)N(C)C(=O)[C@H](C(C)C)NC(=O)[C@H](Cc2ccc(-c3ccccc3)cc2)NC(=O)[C@H](CC(C)C)NC(=O)[C@H](Cc2c[nH]c3ccccc23)NC(=O)[C@H](CC(=O)O)NC(=O)[C@H](Cc2ccc(O)cc2)NC(=O)[C@H](Cc2ccccc2)NC(=O)CSC[C@@H](C(=O)NCC(N)=O)NC(=O)[C@H](CO)NC(=O)[C@H](C(C)C)NC(=O)[C@H](CC(C)C)NC(=O)[C@H](CC(N)=O)NC1=O", "note": "[Compound 1803] ({CH2CO}-FYDWL[Bip]V[NMeA][Nva]NLVSCG-NH2; thioether N-14)", "IC50": 0.2}
{"smiles": "CC(C)C[C@@H]1NC(=O)[C@H](CCN)NC(=O)[C@@H](CC(C)C)NC(=O)[C@H](C)N(C)C(=O)[C@H](C(C)C)NC(=O)[C@H](Cc2ccc(-c3ccccc3)cc2)NC(=O)[C@H](C(C)C)NC(=O)[C@H](Cc2c[nH]c3ccccc23)NC(=O)[C@H](CC(=O)O)NC(=O)[C@H](Cc2ccc(O)cc2)NC(=O)[C@H](CN)NC(=O)CSC[C@@H](C(=O)N[C@@H](C)C(N)=O)NC(=O)[C@H]([C@@H](C)O)NC(=O)[C@H](C(C)C)NC1=O", "note": "[Compound 1360] ({CH2CO}-[Dap]YDWV[Bip]V[NMeA][dL][Dab]LVTCA-NH2; thioether N-14)", "IC50": 0.02}
{"smiles": "CC[C@H](C)[C@@H]1NC(=O)[C@H](Cc2ccc(-c3ccccc3)cc2)NC(=O)[C@H](C(C)(C)O)NC(=O)[C@H](Cc2cccc(C)c2)NC(=O)[C@H](CC(=O)O)NC(=O)[C@H](Cc2ccc(O)cc2)NC(=O)[C@H](CC(N)=O)NC(=O)CSC[C@@H](C(=O)N[C@@H](CCN)C(N)=O)NC(=O)[C@H](CCC(=O)O)NC(=O)[C@H](C(C)(C)O)NC(=O)[C@H](CC2CCCCC2)NC(=O)[C@H](CCN)NC(=O)[C@@H](CC(C)C)NC(=O)[C@H](C)N(C)C1=O", "note": "[Compound 1699] ({CH2CO}-NYD[Phe(3-Me)][Val(3-OH)][Bip]I[NMeA][dL][Dab][Cha][Val(3-OH)]EC[Dab]-NH2; thioether N-14)", "IC50": 0.04}
{"smiles": "CC(C)C[C@@H]1NC(=O)[C@H](CCN)NC(=O)[C@@H](CC(C)C)NC(=O)[C@H](C)N(C)C(=O)[C@H](C(C)C)NC(=O)[C@H](Cc2ccc(-c3ccccc3)cc2)NC(=O)[C@H](C(C)C)NC(=O)[C@H](Cc2c[nH]c3ccccc23)NC(=O)[C@H](CC(=O)O)NC(=O)[C@H](Cc2ccc(OCC(=O)O)cc2)NC(=O)[C@H](CC(N)=O)NC(=O)CSC[C@@H](C(=O)N[C@@H](C)C(N)=O)NC(=O)[C@H]([C@@H](C)O)NC(=O)[C@H](C(C)C)NC1=O", "note": "[Compound 1377] ({CH2CO}-NY(Carboxymethyl)DWV[Bip]V[NMeA][dL][Dab]LVTCA-NH2; thioether N-14)", "IC50": 0.02}
{"smiles": "CC(=O)NCCCC[C@@H]1NC(=O)[C@H](Cc2ccc(-c3ccccc3)cc2)NC(=O)[C@H](Cc2ccc(O)cc2)NC(=O)[C@H](Cc2cccc(C)c2)NC(=O)[C@H](CC(=O)O)NC(=O)[C@H](Cc2ccc(OCC(=O)O)cc2)NC(=O)[C@H](C(C)O)NC(=O)CSC[C@@H](C(=O)N[C@H](CC(N)=O)C(N)=O)NC(=O)[C@H](C(C)O)NC(=O)[C@H](C(C)C)NC(=O)[C@H](CC2CCCCC2)NC(=O)[C@H](CCN)NC(=O)[C@@H](CC(C)C)NC(=O)[C@H](C)N(C)C1=O", "note": "(stereo partly drawn) [Compound 2118] ({CH2CO}-[Thr(3ξ)]Y(Carboxymethyl)D[Phe(3-Me)]Y[Bip]K(Ac)[NMeA][dL][Dab][Cha]V[Thr(3ξ)]C[dN]-NH2; thioether N-14)", "IC50": 0.05}
{"smiles": "CCCC[C@@H]1NC(=O)[C@H](Cc2ccc(-c3ccccc3)cc2)NC(=O)[C@H](C(C)C)NC(=O)[C@H](Cc2c[nH]c3ccccc23)NC(=O)[C@H](CC(=O)O)NC(=O)[C@H](Cc2ccc(C(=O)O)cc2)NC(=O)[C@H](Cc2ccncc2)NC(=O)CSC[C@@H](C(=O)N[C@@H](CC(N)=O)C(N)=O)NC(=O)[C@H](CO)NC(=O)[C@H](C(C)C)NC(=O)[C@H](CC2CCCCC2)NC(=O)[C@H](CCN)NC(=O)[C@@H](C)NC(=O)[C@H](CCCC)N(C)C1=O", "note": "[Compound 2089] ({CH2CO}-[4Pal][Phe(4-COOH)]DWV[Bip][Nle][NMeNle][dA][Dab][Cha]VSCN-NH2; thioether N-14)", "IC50": 0.05}
{"smiles": "Cc1cccc(C[C@@H]2NC(=O)[C@H](CC(=O)O)NC(=O)[C@H](Cc3ccc(C(=O)O)cc3)NC(=O)[C@H](Cc3ccc(OCC(=O)O)cc3)NC(=O)CSC[C@@H](C(=O)N[C@@H](C)C(N)=O)NC(=O)[C@H]([C@@H](C)O)NC(=O)[C@H](C(C)C)NC(=O)[C@H](CC(C)C)NC(=O)[C@H](CCN)NC(=O)[C@@H](CC(C)C)NC(=O)[C@H](C)N(C)C(=O)[C@H](C(C)C)NC(=O)[C@H](Cc3ccc(-c4ccccc4)cc3)NC(=O)[C@H](C(C)C)NC2=O)c1", "note": "[Compound 1571] ({CH2CO}-Y(Carboxymethyl)[Phe(4-COOH)]D[Phe(3-Me)]V[Bip]V[NMeA][dL][Dab]LVTCA-NH2; thioether N-14)", "IC50": 0.01}
{"smiles": "CC(C)C[C@@H]1NC(=O)[C@H](Cc2c[nH]c3ccccc23)NC(=O)[C@H](CC(=O)O)NC(=O)[C@H](Cc2ccc(O)cc2)NC(=O)[C@H](Cc2ccccc2)NC(=O)CSC[C@@H](C(=O)NCC(N)=O)NC(=O)[C@H](CO)NC(=O)[C@H](C(C)C)NC(=O)[C@H](CC(C)C)NC(=O)[C@H](CC(N)=O)NC(=O)[C@H](CCCNC(N)=O)NC(=O)[C@H](C)N(C)C(=O)[C@H](C(C)C)NC(=O)[C@H](Cc2ccc(-c3ccccc3)cc2)NC1=O", "note": "[Compound 1812] ({CH2CO}-FYDWL[Bip]V[NMeA][Cit]NLVSCG-NH2; thioether N-14)", "IC50": 0.28}
{"smiles": "CC(C)C[C@@H]1NC(=O)[C@H](Cc2c[nH]c3ccccc23)NC(=O)[C@H](CC(=O)O)NC(=O)[C@H](Cc2ccc(O)cc2)NC(=O)[C@H](Cc2cnc[nH]2)NC(=O)CSC[C@@H](C(=O)NCC(N)=O)NC(=O)[C@H](CO)NC(=O)[C@H](C(C)C)NC(=O)[C@H](CC(C)C)NC(=O)[C@H](CC(N)=O)NC(=O)[C@H](CC(N)=O)NC(=O)[C@H](C)N(C)C(=O)[C@H](C(C)C)NC(=O)[C@H](Cc2ccc(-c3ccccc3)cc2)NC1=O", "note": "[Compound 1808] ({CH2CO}-HYDWL[Bip]V[NMeA]NNLVSCG-NH2; thioether N-14)", "IC50": 0.86}
{"smiles": "CC(C)C[C@@H]1NC(=O)[C@H](CCN)NC(=O)[C@@H](CC(C)C)NC(=O)[C@H](C)N(C)C(=O)[C@H](CCC(=O)O)NC(=O)[C@H](Cc2ccc(-c3ccccc3)cc2)NC(=O)[C@H](C(C)C)NC(=O)[C@H](Cc2c[nH]c3ccccc23)NC(=O)[C@H](CC(=O)O)NC(=O)[C@H](Cc2ccc(OCC(=O)O)cc2)NC(=O)[C@H](CC(N)=O)NC(=O)CSC[C@@H](C(=O)NCC(N)=O)NC(=O)[C@H](C(C)O)NC(=O)[C@H](C(C)C)NC1=O", "note": "(stereo partly drawn) [Compound 2086] ({CH2CO}-NY(Carboxymethyl)DWV[Bip]E[NMeA][dL][Dab]LV[Thr(3ξ)]CG-NH2; thioether N-14)", "IC50": 0.2}
{"smiles": "C=CC[C@@H]1NC(=O)[C@H](Cc2cccc(C)c2)NC(=O)[C@H](CC(=O)O)NC(=O)[C@H](Cc2ccncc2)NC(=O)[C@H](Cc2ccc(OCC(=O)O)cc2)NC(=O)CSCC(C(=O)NCC(N)=O)NC(=O)[C@H](CC=C)NC(=O)[C@H](C(C)C)NC(=O)[C@H](CC(C)C)NC(=O)[C@H](CC(N)=O)NC(=O)[C@@H](CC(C)C)NC(=O)[C@H](C)N(C)C(=O)[C@H](C(C)C)NC(=O)[C@H](Cc2ccc(-c3ccccc3)cc2)NC1=O", "note": "(stereo partly drawn) [Compound 1880] ({CH2CO}-Y(Carboxymethyl)[4Pal]D[Phe(3-Me)][AllylGly][Bip]V[NMeA][dL]NLV[AllylGly][ξC]G-NH2; thioether N-14)", "IC50": 0.05}
{"smiles": "CC(C)C[C@@H]1NC(=O)[C@H](CCN)NC(=O)[C@@H](CC(C)C)NC(=O)[C@H](C)N(C)C(=O)[C@H](CCCNC(N)=O)NC(=O)[C@H](Cc2ccc(-c3ccccc3)cc2)NC(=O)[C@H](C(C)C)NC(=O)[C@H](Cc2c[nH]c3ccccc23)NC(=O)[C@H](CC(=O)O)NC(=O)[C@H](Cc2ccc(OCC(=O)O)cc2)NC(=O)[C@H](Cc2ccc(OCC(=O)O)cc2)NC(=O)CSC[C@@H](C(=O)N[C@@H](C)C(N)=O)NC(=O)[C@H]([C@@H](C)O)NC(=O)[C@H](C(C)C)NC1=O", "note": "[Compound 1569] ({CH2CO}-Y(Carboxymethyl)Y(Carboxymethyl)DWV[Bip][Cit][NMeA][dL][Dab]LVTCA-NH2; thioether N-14)", "IC50": 0.04}
{"smiles": "C#CC[C@H](NC(=O)CNC(=O)[C@@H]1CSCC(=O)N[C@@H]([C@@H](C)O)C(=O)N[C@@H](Cc2ccc(OCC(=O)O)cc2)C(=O)N[C@@H](CC(=O)O)C(=O)N[C@@H](Cc2cccc(C)c2)C(=O)N[C@@H](Cc2ccc(OCC(=O)O)cc2)C(=O)N[C@@H](Cc2ccc(-c3ccccc3)cc2)C(=O)N[C@@H](Cc2ccc(OCC(=O)O)cc2)C(=O)N(C)[C@@H](C)C(=O)N[C@H](CC(C)C)C(=O)N[C@@H](CCN)C(=O)N[C@@H](CC2CCCCC2)C(=O)N[C@@H](C(C)(C)O)C(=O)N[C@@H](CCC(=O)O)C(=O)N1)C(N)=O", "note": "[Compound 1939] ({CH2CO}-TY(Carboxymethyl)D[Phe(3-Me)]Y(Carboxymethyl)[Bip]Y(Carboxymethyl)[NMeA][dL][Dab][Cha][Val(3-OH)]ECG[Pra]-NH2; thioether N-14)", "IC50": 0.11}
{"smiles": "Cc1cccc(C[C@@H]2NC(=O)[C@H](CC(=O)O)NC(=O)[C@H](Cc3ccc(C(=O)O)cc3)NC(=O)[C@H](Cc3ccncc3)NC(=O)CSC[C@@H](C(=O)N[C@@H](C)C(N)=O)NC(=O)[C@H]([C@@H](C)O)NC(=O)[C@H](C(C)C)NC(=O)[C@H](CC(C)C)NC(=O)[C@H](CCN)NC(=O)[C@@H](CC(C)C)NC(=O)[C@H](C)N(C)C(=O)[C@H](C(C)C)NC(=O)[C@H](Cc3ccc(-c4ccccc4)cc3)NC(=O)[C@H](C(C)C)NC2=O)c1", "note": "[Compound 1420] ({CH2CO}-[4Pal][Phe(4-COOH)]D[Phe(3-Me)]V[Bip]V[NMeA][dL][Dab]LVTCA-NH2; thioether N-14)", "IC50": 0.01}
